Like-named read-outs stand apart in the source and are kept apart here. One block for each molecule: values may come before it.
Legend:
[1] = system: neoplastic lesions; set-up: method as in PMID 34168013; conditions: patients with pancreatic, breast, ovarian, or colorectal carcinomas ref 51; cited from earlier work
[2] = PET/CT biodistribution of 68Ga-labeled tracers in HEK-FAP tumor-bearing mice; conditions: mouse, in vivo, 10 MBq IV, n=3
Method: (§1) HEK-FAP cell line was generated using the vector pTAR to insert FAP complementary DNA by recombinase-mediated cassette exchange into the pre-tagged HEK293 cells (InSCREENeX). For in vivo HEK-FAP studies, female nude or SCID beige mice (Charles River Laboratories) were subcutaneously implanted with 5 × 10^6 HEK-FAP cells in 150 µL serum-free media:Matrigel (1:1) (Corning). For the patient-derived xenograft (PDX) efficacy study, female NMRI nu/nu mice (Janvier Labs) were subcutaneously implanted with Sarc4809 fragments (Experimental Pharmacology & Oncology Berlin-Buch). All animal experiments were carried out under licenses approved by the respective authorities and in compliance with guidelines on animal welfare.
Thirty megabecquerels (30 MBq/nmol) ^111In-FAP-2286 (n = 9) or ^111In-FAPI-04 (n = 6) was injected intravenously (IV) into HEK-FAP tumor-bearing mice and the distribution of the radiotracers was assessed using the NanoSPECT/computed tomography (CT) system (Mediso). […] For SPECT imaging of ^177Lu-labeled FAP-2286 or ^177Lu-labeled FAPI-46, 30 MBq was administered IV (30 MBq/nmol; n = 3) and the distribution of the radiotracers was assessed using the nanoScan SPECT/CT system (Mediso). […]
(§2) For quantification, VivoQuant (InviCRO) was used to draw regions of interest (ROIs) in relevant tissues, with a ROI drawn over the left ventricle of the heart to serve as blood pool surrogate. […]

[3] = Plasma stability assay, mouse plasma; assay type: in vitro ADME; conditions: 24 h at 37 °C
Method: FAP-2286 was incubated in human or mouse plasma at 37 °C for 24 h. Compound concentration was measured using HPLC–MS/MS (Agilent Technologies) and percent concentration remaining was calculated.
FAP-2286 was incubated in 50 µL of plasma with 3.8% sodium citrate as anticoagulant at a concentration of 10 µM. After 1, 2, 4, and 24 hours incubation at 37°C a suitable internal standard was added. FAP-2286 with plasma proteins were precipitated using 150 µL of a precipitation agent consisting of 77% 0.1 M zinc sulfate solution and 23% acetonitrile. Precipitation was carried out on ice for 30 minutes. […]
A nonincubated plasma sample spiked with 10 µM sample concentration was prepared in the same way and was used as the reference. […] The samples were analyzed using an Agilent 1290 UHPLC system coupled to an Agilent 6530 QTOF mass spectrometer.
For the quantitative data analysis, the Agilent Quantitative Analysis B.08.00 software (RRID:SCR_015040) was used. […] The concentration of the compound was determined by external matrix calibration using 6 calibration samples (1, 2.5, 5, 7.5, 10, and 12.5 µM). […] Carryover was determined by analyzing the blank sample directly after the highest calibration sample and comparing the determined peak areas. Recovery was calculated as the ratio between the spiked concentration of the recovery sample and the concentration calculated from the peak area of this sample.

[4] = system: HEK-FAP xenografts; test: SPECT/CT biodistribution and tumor dosimetry of 177Lu-labeled tracers in HEK-FAP tumor-bearing mice; assay type: in vivo, mouse; conditions: 177Lu-labeled, HEK-FAP tumors
Method: as §1
(§3) Thirty megabecquerels (30 MBq/nmol) ^111In-FAP-2286 (n = 9) or ^111In-FAPI-04 (n = 6) was injected intravenously (IV) into HEK-FAP tumor-bearing mice and the distribution of the radiotracers was assessed using the NanoSPECT/computed tomography (CT) system (Mediso). For PET imaging, 10 MBq of ^68Ga-FAP-2286 or ^68Ga-FAPI-46 (10 MBq/nmol) was given IV into HEK-FAP tumor-bearing mice (n = 3) followed by PET/CT analysis using the nanoScan PET/CT system (Mediso). For SPECT imaging of ^177Lu-labeled FAP-2286 or ^177Lu-labeled FAPI-46, 30 MBq was administered IV (30 MBq/nmol; n = 3) and the distribution of the radiotracers was assessed using the nanoScan SPECT/CT system (Mediso).
(§4) The animal studies were conducted in different laboratories. ^111In-Imaging and efficacy studies using the HEK-FAP model and different doses of ^177Lu-FAP-2286 as well as the Sarc4809 PDX efficacy study took place at Berlin Experimental Imaging Center (BERIC, Germany). The Sarc4809 model was originally derived from a primary lesion of undifferentiated pleomorphic sarcoma. These studies were performed in either female swiss nude (Charles River Laboratories, France – ^111In-Imaging), NMRI nude (Janvier Labs, France – PDX efficacy study) or SCID beige mice (Charles River Laboratories, Germany - ^111In-Imaging). ^68Ga-Imaging and comparative studies with ^177Lu labeled FAP-2286 and FAPI-46 were performed at Minerva Imaging ApS, Denmark using female athymic nude mice (Charles River Laboratories, Germany). For all experiments animals were ordered with an age of approximately 6 weeks. Animals were allowed an acclimatization period of at least one week prior to inoculation. Animals were housed in an animal room with 12 hours light and 12 hours darkness with free access to food and water. A maximum number of 5 animals were housed in the same cage, cages were equipped with nesting material and plastic or paper houses for hiding. Each cage was labeled with study ID, group and animal numbers and test compound. For efficacy studies animals were randomized according to tumor size. Animals were checked daily for any signs of illness or abnormal behavior. Main humane endpoints were defined as tumor volumes > 1500 mm^3, tumor burden > 10% of animal weight, body weight loss >15% and tumor ulceration. When reaching one of these criteria the animal was sacrificed by cervical dislocation. All animal experiments were approved either by the Regional Office for Health and Social Affairs Berlin (LAGeSo), Germany or the National Animal Experiments Inspectorate under the Ministry of Environment and Food of Denmark.
(§5) Imaging and image analysis were performed as described. During the scan, mice were kept under isoflurane anesthesia, and body temperature was maintained under warm air. The following acquisition parameters were used for the respective imaging modality.
as §2

[5] = SPECT/CT biodistribution of 111In-labeled tracers in HEK-FAP tumor-bearing mice; assay type: in vivo, mouse; conditions: mouse; for tissue uptake at 1 h / tissue uptake at 3 h / tissue uptake at 6 h / tissue uptake at 24 h / tissue uptake at 48 h: in vivo
Method: as §1, §3, §4, §5, §2

tissue uptake at 0.5 h ([2]; 0.5 h after administration): 9.8 %ID/g | tissue uptake at 3 h ([2]; 3 h after injection): 10.8 %ID/g
Structure (SMILES): CCCCCC(=O)N[C@H]1CSCc2cc(CSCCNC(=O)CN3CCN(CC(=O)O)CCN(CC(=O)O)CCN(CC(=O)O)CC3)cc(c2)CSC[C@@H](C(=O)O)NC(=O)[C@H](Cc2ccccc2)NC(=O)[C@H](CCC(N)=O)NC(=O)[C@H]([C@@H](C)O)NC(=O)[C@@H]2CCCN2C(=O)[C@@H]2CCCN2C1=O [^68Ga-FAP-2286, metal not drawn]
PET/CT uptake in patients [1]: significant uptake in neoplastic lesions and low presence in normal tissues

percent retained in mouse plasma [3]: 85% | fold higher TIAC compared to FAPI-46 [4]: 12 fold | fold higher absorbed dose delivered to the tumors compared to FAPI-46 [4]: 9 fold
Structure (SMILES): CCCCCC(=O)N[C@H]1CSCc2cc(CSCCNC(=O)CN3CCN(CC(=O)O)CCN(CC(=O)O)CCN(CC(=O)O)CC3)cc(c2)CSC[C@@H](C(=O)O)NC(=O)[C@H](Cc2ccccc2)NC(=O)[C@H](CCC(N)=O)NC(=O)[C@H]([C@@H](C)O)NC(=O)[C@@H]2CCCN2C(=O)[C@@H]2CCCN2C1=O [FAP-2286]

tissue to tissue ratio at 1 h ([5]; female, tumor and kidney, iv, 30 MBq, total radioactivity, tumor-to-kidney, 1 h p.i., read-out: T/K ratio (mean ± SD)): 3 ± 1.3 | tissue to tissue ratio at 3 h ([5]; female, tumor and kidney, iv, 30 MBq, total radioactivity, tumor-to-kidney, 3 h p.i., read-out: T/K ratio (mean ± SD)): 4.6 ± 1.9 | tissue to tissue ratio at 6 h ([5]; female, tumor and kidney, iv, 30 MBq, total radioactivity, tumor-to-kidney, 6 h p.i., read-out: T/K ratio (mean ± SD)): 5 ± 2.8 | tissue to tissue ratio at 24 h ([5]; female, tumor and kidney, iv, 30 MBq, total radioactivity, tumor-to-kidney, 24 h p.i., read-out: T/K ratio (mean ± SD)): 5.9 ± 3.3 | tissue to tissue ratio at 48 h ([5]; female, tumor and kidney, iv, 30 MBq, total radioactivity, tumor-to-kidney, 48 h p.i., read-out: T/K ratio (mean ± SD)): 7.5 ± 4.8 | tissue uptake at 1 h ([5]; 1 h p.i., read-out: Salivary Glands %ID/g (mean ± SD)): 0.6 ± 0.4 %ID/g | tissue uptake at 3 h ([5]; 3 h p.i., read-out: Salivary Glands %ID/g (mean ± SD)): 0.2 ± 0.1 %ID/g | tissue uptake at 6 h ([5]; 6 h p.i., read-out: Salivary Glands %ID/g (mean ± SD)): 0.2 ± 0.2 %ID/g | tissue uptake at 1 h ([5]; heart, 1 h p.i., read-out: Blood Pool Surrogate %ID/g (mean ± SD)): 0.4 ± 0.1 %ID/g | tissue uptake at 3 h ([5]; heart, 3 h p.i., read-out: Blood Pool Surrogate %ID/g (mean ± SD)): 0.1 ± 0.1 %ID/g | tissue uptake at 6 h ([5]; heart, 6 h p.i., read-out: Blood Pool Surrogate %ID/g (mean ± SD)): 0.1 %ID/g | tissue uptake at 1 h ([5]; iv, 1 h p.i., 30 MBq IV, HEK-FAP mice, n=9, read-out: Tumor %ID/g (mean ± SD)): 11.1 ± 4.3 %ID/g | tissue uptake at 1 h ([5]; iv, 1 h p.i., 30 MBq IV, HEK-FAP mice, read-out: Kidney %ID/g (mean ± SD)): 3.9 ± 1 %ID/g | tissue uptake at 1 h ([5]; iv, 1 h p.i., 30 MBq IV, HEK-FAP mice, read-out: Liver %ID/g (mean ± SD)): 0.3 ± 0.1 %ID/g | tissue uptake at 3 h ([5]; iv, 3 h p.i., 30 MBq IV, HEK-FAP mice, read-out: Kidney %ID/g (mean ± SD)): 2.5 ± 0.4 %ID/g | tissue uptake at 3 h ([5]; iv, 3 h p.i., 30 MBq IV, HEK-FAP mice, read-out: Liver %ID/g (mean ± SD)): 0.2 ± 0.1 %ID/g | tissue uptake at 6 h ([5]; iv, 6 h p.i., 30 MBq IV, HEK-FAP mice, n=9, read-out: Tumor %ID/g (mean ± SD)): 11.4 ± 6.6 %ID/g | tissue uptake at 6 h ([5]; iv, 6 h p.i., 30 MBq IV, HEK-FAP mice, read-out: Kidney %ID/g (mean ± SD)): 2.2 ± 0.3 %ID/g | tissue uptake at 6 h ([5]; iv, 6 h p.i., 30 MBq IV, HEK-FAP mice, read-out: Liver %ID/g (mean ± SD)): 0.1 %ID/g | tissue uptake at 24 h ([5]; iv, 24 h p.i., 30 MBq IV, HEK-FAP mice, n=9, read-out: Tumor %ID/g (mean ± SD)): 9.7 ± 5.3 %ID/g | tissue uptake at 24 h ([5]; iv, 24 h p.i., 30 MBq IV, HEK-FAP mice, read-out: Kidney %ID/g (mean ± SD)): 1.6 ± 0.2 %ID/g | tissue uptake at 24 h ([5]; iv, 24 h p.i., 30 MBq IV, HEK-FAP mice, read-out: Liver %ID/g (mean ± SD)): 0.1 %ID/g | tissue uptake at 48 h ([5]; iv, 48 h p.i., 30 MBq IV, HEK-FAP mice, n=9, read-out: Tumor %ID/g (mean ± SD)): 9.1 ± 5 %ID/g | tissue uptake at 48 h ([5]; iv, 48 h p.i., 30 MBq IV, HEK-FAP mice, read-out: Kidney %ID/g (mean ± SD)): 1.3 ± 0.2 %ID/g | tissue uptake at 48 h ([5]; iv, 48 h p.i., 30 MBq IV, HEK-FAP mice, read-out: Liver %ID/g (mean ± SD)): 0.1 %ID/g | tissue uptake at 1 h ([5]; non-tumor bearing shoulder, 1 h p.i., read-out: Shoulder %ID/g (mean ± SD)): 1.2 ± 0.6 %ID/g | tissue uptake at 3 h ([5]; non-tumor bearing shoulder, 3 h p.i., read-out: Shoulder %ID/g (mean ± SD)): 0.4 ± 0.1 %ID/g | tissue uptake at 6 h ([5]; non-tumor bearing shoulder, 6 h p.i., read-out: Shoulder %ID/g (mean ± SD)): 0.1 ± 0.1 %ID/g | tissue uptake at 24 h ([5]; non-tumor bearing shoulder, 24 h p.i., read-out: Shoulder %ID/g (mean ± SD)): 0.1 %ID/g | tissue uptake at 48 h ([5]; non-tumor bearing shoulder, 48 h p.i., read-out: Shoulder %ID/g (mean ± SD)): 0.1 %ID/g
Structure (SMILES): CCCCCC(=O)N[C@H]1CSCc2cc(CSCCNC(=O)CN3CCN(CC(=O)O)CCN(CC(=O)O)CCN(CC(=O)O)CC3)cc(c2)CSC[C@@H](C(=O)O)NC(=O)[C@H](Cc2ccccc2)NC(=O)[C@H](CCC(N)=O)NC(=O)[C@H]([C@@H](C)O)NC(=O)[C@@H]2CCCN2C(=O)[C@@H]2CCCN2C1=O [^111In-FAP-2286, metal not drawn]

From paper PMC9399058, “Preclinical evaluation of FAP-2286 for fibroblast activation protein targeted radionuclide imaging and therapy” (European Journal of Nuclear Medicine and Molecular Imaging, 2022)
